Results published in patent US6881844B2, “Indole-3-carboxamides as glucokinase activators” (Hoffman-La Roche Inc., priority 2002, dated 2005).

In the case of Cc1ccc2c(C(=O)Nc3nccs3)cn(C(C)C)c2c1, the melting point is reported as 215 to 217 °C. For CC(C)n1cc(C(=O)Nc2nccs2)c2ccc(Cl)cc21, the melting point was 202 to 204 °C. In the case of CCn1cc(C(=O)Nc2nccs2)c2ccc(Cl)cc21, the melting point is reported as 234 to 236 °C. CCCn1cc(C(=O)Nc2nccs2)c2ccc(Cl)cc21 gave a melting point of 175 to 176 °C. In the case of CCCCn1cc(C(=O)Nc2nccs2)c2ccc(Cl)cc21, the melting point is reported as 168 to 169 °C. Molecule CC(C)Cn1cc(C(=O)Nc2nccs2)c2ccc(Cl)cc21 has a melting point of 200 to 202 °C. CCCCCn1cc(C(=O)Nc2nccs2)c2ccc(Cl)cc21 gave a melting point of 139 to 141 °C. Molecule CC(C)CCn1cc(C(=O)Nc2nccs2)c2ccc(Cl)cc21 has a melting point of 179 to 180 °C. Molecule O=C(Nc1nccs1)c1cn(CC2CC2)c2cc(Cl)ccc12 has a melting point of 185 to 187 °C. For O=C(Nc1nccs1)c1cn(CC2CCC2)c2cc(Cl)ccc12, the melting point was 169 to 173 °C. Molecule O=C(Nc1nccs1)c1cn(CC2CCCC2)c2cc(Cl)ccc12 has a melting point of 117 to 119 °C. For CC(C)n1cc(C(=O)Nc2nccs2)c2ccc(C(F)(F)F)cc21, the melting point was 246 to 247 °C. O=C(Nc1nccs1)c1cn(CC2CCCCC2)c2cc(Cl)ccc12 gave a melting point of 181 to 183 °C. With CC(C)n1cc(C(=O)Nc2nncs2)c2ccc(Cl)cc21 the melting point was 274 to 275 °C. Molecule Cc1cnc(NC(=O)c2cn(C(C)C)c3cc(Cl)ccc23)s1 has a melting point of 216 to 219 °C. Cc1csc(NC(=O)c2cn(C(C)C)c3cc(Cl)ccc23)n1 gave a melting point of 201 to 203 °C. Work on CC(C)n1cc(C(=O)Nc2ncc(Cl)s2)c2ccc(Cl)cc21 yielded a melting point of 252 to 253 °C. For CC(C)n1cc(C(=O)Nc2ncc(Br)s2)c2ccc(Cl)cc21, the melting point was 240 to 242 °C. CCOC(=O)Cc1csc(NC(=O)c2cn(C(C)C)c3cc(Cl)ccc23)n1 gave a melting point of 65 to 75 °C. Molecule CC(C)n1cc(C(=O)Nc2ccccn2)c2ccc(Cl)cc21 has a melting point of 149 to 150 °C. Work on Cc1ccc(NC(=O)c2cn(C(C)C)c3cc(Cl)ccc23)nc1 yielded a melting point of 132 to 134 °C. For CC(C)n1cc(C(=O)Nc2ccc(C(F)(F)F)cn2)c2ccc(Cl)cc21, the melting point was 179 to 181 °C. With CC(C)n1cc(C(=O)Nc2nccs2)c2ccc([N+](=O)[O-])cc21 the melting point was 236 to 239 °C. CC(C)n1cc(C(=O)Nc2ccc(Cl)cn2)c2ccc(Cl)cc21 showed a melting point of 131 to 134 °C. In the case of CC(C)n1cc(C(=O)Nc2ccc(Br)cn2)c2ccc(Cl)cc21, the melting point is reported as 57 to 64 °C. CC(C)n1cc(C(=O)Nc2nccs2)c2ccc(O)cc21 gave a melting point of 239 to 241 °C. With COc1ccc2c(C(=O)Nc3nccs3)cn(C(C)C)c2c1 the melting point was 182 to 185 °C. Work on CSc1ccc2c(C(=O)Nc3nccs3)cn(C(C)C)c2c1 yielded a melting point of 172 to 176 °C. With CC(C)n1cc(C(=O)Nc2nccs2)c2ccc(S(C)(=O)=O)cc21 the melting point was 247 to 249 °C. CC(C)n1cc(C(=O)Nc2nccs2)c2ccc(F)cc21 showed a melting point of 203 to 204 °C. For CC(C)n1cc(C(=O)Nc2nccs2)c2ccc(Br)cc21, the melting point was 205 to 207 °C.
